Values quoted from earlier work in patent US5807857A, “Piperazine, piperidine and tetrahydropyridine derivative of indol-3-alkyl as 5-HT1D-α agonists” (Merck Sharp & Dohme Ltd., priority 1994, dated 1998).

Assays:
[1] = administration to humans at therapeutic doses
[2] = test system: human 5-HT1Dα and 5-HT1Dβ receptor subtypes; details: cf. WO-A-91/17174, Table 1

discrimination between the human 5-HT1Dα and 5-HT1Dβ receptor subtypes [2]: barely discriminates
SMILES: CNS(=O)(=O)Cc1ccc2[nH]cc(CCN(C)C)c2c1 [sumatriptan]
adverse cardiovascular events in humans [1]: certain adverse cardiovascular events
